{"source": "paper PMC12531613", "about": "“Synthesis and Biological Evaluation of Novel 2‐(Piperidin‐4‐yl)‐1,2,3,4‐tetrahydroisoquinoline and 2‐(Piperidin‐4‐yl)decahydroisoquinoline Antimycotics” (Archiv Der Pharmazie, 2025)", "assay_type_in_all_cases": "cell-based", "key": {"Yarrowia lipolytica": {"tested_on": "Yarrowia lipolytica", "experiment": "MIC100 microdilution assay against Yarrowia lipolytica", "experimental": "In previous research we found a good correlation between MIC values against Yarrowia lipolytica and pathogenic Candida species.\nDetermination of MICs against Yarrowia lipolytica (DSMZ, Braunschweig, Germany) was carried out according to lit. Yarrowia lipolytica was cultivated in AC‐agar (Sigma Aldrich). Concentration of yeast cells was determined by photometer and adjusted to a turbidity of 0.5 according to McFarland standard at 600 nm. All substances were dissolved in DMSO or methanol.\nDetermination of MICs (minimal inhibitory concentration) against Yarrowia lipolytica was carried out according to Lit.^[13] Concentration of yeast cells was determined by photometer and adjusted to a turbitity of 0.5 according to McFarland Standard."}, "C. krusei": {"tested_on": "C. krusei", "experiment": "MIC90 microdilution (EUCAST), C. krusei", "settings": "Pichia kudriavzevii, 24 h", "experimental": "(§1) Determination of MICs (minimal inhibitory concentration) against Candida species was carried out according to the European Committee of Antifungal Susceptibility Testing. Concentration of yeast cells was determined by photometer and adjusted to a turbidity of 0.5 according to McFarland standard. MIC90 was determined by microdilution plate reader (Sunrise Tecan) at 450 nm, after 24 h incubation at 37°C. MIC90 was defined as the minimal concentration of chemical causing 90% growth inhibition, respectively. Growth inhibition of molds was determined by eye and microscopically, following EUCAST guidelines. All substances were dissolved in DMSO and diluted in RPMI 1640 medium, containing 2% glucose. All assays were carried out twice."}, "C. albicans": {"tested_on": "C. albicans", "experiment": "MIC90 microdilution (EUCAST), C. albicans", "settings": "Candida albicans, 24 h", "experimental": "as §1"}, "A. fumigatus (R16)": {"tested_on": "A. fumigatus (R16)", "experiment": "MIC90 growth inhibition of molds (EUCAST), A. fumigatus (R16)", "settings": "Aspergillus fumigatus", "experimental": "as §1"}, "C. glabrata": {"tested_on": "C. glabrata", "experiment": "MIC90 microdilution (EUCAST), C. glabrata", "settings": "Nakaseomyces glabratus, 24 h", "experimental": "as §1"}, "A. fumigatus (A65)": {"tested_on": "A. fumigatus (A65)", "experiment": "MIC90 growth inhibition of molds (EUCAST), A. fumigatus (A65)", "settings": "Aspergillus fumigatus, RPMI 1640, 2% glucose, read by eye and microscopically", "experimental": "Determination of MICs (minimal inhibitory concentration) against Candida species was carried out according to the European Committee of Antifungal Susceptibility Testing. Concentration of yeast cells was determined by photometer and adjusted to a turbidity of 0.5 according to McFarland standard. […] Growth inhibition of molds was determined by eye and microscopically, following EUCAST guidelines. […] All assays were carried out twice."}, "A. fumigatus (R7)": {"tested_on": "A. fumigatus (R7)", "experiment": "MIC90 growth inhibition of molds (EUCAST), A. fumigatus (R7)", "settings": "Aspergillus fumigatus", "experimental": "as §1"}, "R. arrhizus (oryzae)": {"tested_on": "R. arrhizus (oryzae)", "experiment": "MIC90 growth inhibition of molds (EUCAST), R. arrhizus (oryzae)", "settings": "Rhizopus arrhizus", "experimental": "as §1"}, "[1]": {"experiment": "MTT cytotoxicity assay against HL 60 cells", "settings": "human", "experimental": "The cytotoxicity of the active compounds was checked in an MTT assay against human HL 60 cells. […] Although, this corresponds to the MIC range that would be needed in treatment, the values are within the range observed for commonly used antimycotics such as amorolfine and posaconazole. All active compounds were evaluated for their biopharmaceutical behavior and drug‐likeness using the online program SwissADME [26] and should show oral bioavailability according to the Lipinski rules of five.\nHL‐60 cells (human leukemia cells, DSM No. ACC3) were obtained from DSMZ (German Collection of Microorganisms and Cell Cultures, Braunschweig, Germany) and cultivated in RPMI 1640 medium with 10% fetal bovine serum (FBS), both from PAA Laboratories, Cölbe, Germany) without the addition of antibiotics at 37°C in a humidified atmosphere containing 5% CO2. The assay was performed according to lit."}, "R. microsporus": {"tested_on": "R. microsporus", "experiment": "MIC90 growth inhibition of molds (EUCAST), R. microsporus", "settings": "Rhizopus microsporus", "experimental": "as §1"}, "[2]": {"settings": "microdilution, 48 h, 25°C, 600 nm, read-out: MIC100"}, "[3]": {"settings": "supplement table, MIC100, 48 h, 25°C, 600 nm, read-out: Biological Activity MIC Yarrowia lipolytica"}, "[4]": {"settings": "48 h, read-out: Biological Activity MIC Yarrowia lipolytica"}, "[5]": {"settings": "HL-60 cells (human leukemia cells), HL 60 cell line, MTT assay, read-out: IC50 cytotoxicity"}}, "note": "Like-named read-outs stand apart in the source and are kept apart here.", "data": [{"compound": "C1CC[C@H]2CN(C3CCNCC3)CC[C@@H]2C1", "note": "(racemic) [4c, (±)‐2‐(Piperidin‐4‐yl)decahydroisoquinoline]", "values": [{"measurement": "MIC", "setting": "Yarrowia lipolytica; [2]", "value": "> 100", "unit": "mg/L"}, {"measurement": "MIC", "setting": "Yarrowia lipolytica; [3]", "value": "> 100", "unit": "mg/L"}]}, {"compound": "CCCC(=O)N1CCC(N2CCC3CCCCC3C2)CC1", "note": "(racemic) [5g, (±)‐1‐[4‐(Octahydroisoquinolin‐2(1H)‐yl)‐piperidin‐1‐yl]‐butan‐1‐one]", "values": [{"measurement": "MIC", "setting": "Yarrowia lipolytica; [4]", "value": "> 100", "unit": "mg/L"}, {"measurement": "MIC", "setting": "Yarrowia lipolytica; 48 h, read-out: MIC100", "value": "> 100", "unit": "mg/L"}]}, {"compound": "CCCCCCCC(=O)N1CCC(N2CCC3CCCCC3C2)CC1", "note": "(racemic) [5h, (±)‐1‐[4‐(Octahydroisoquinolin‐2(1H)‐yl)piperidin‐1‐yl]octan‐1‐one]", "values": [{"measurement": "MIC", "setting": "Yarrowia lipolytica; [4]", "value": "> 100", "unit": "mg/L"}, {"measurement": "MIC", "setting": "Yarrowia lipolytica; 48 h, read-out: MIC100", "value": "> 100", "unit": "mg/L"}]}, {"compound": "CCCCCCCCCCCC(=O)N1CCC(N2CCC3CCCCC3C2)CC1", "note": "(racemic) [5i, (±)‐1‐[4‐(Octahydroisoquinolin‐2(1H)‐yl)‐piperidin‐1‐yl]‐dodecan‐1‐one]", "values": [{"measurement": "MIC", "setting": "Yarrowia lipolytica; [4]", "value": "> 100", "unit": "mg/L"}, {"measurement": "MIC", "setting": "Yarrowia lipolytica; 48 h, read-out: MIC100", "value": "> 100", "unit": "mg/L"}]}, {"compound": "CCCCN1CCC(N2CCC3CCCCC3C2)CC1", "note": "(racemic) [6g, (±)‐2‐(1‐Butylpiperidin‐4‐yl)‐decahydroisoquinoline]", "values": [{"measurement": "MIC90", "setting": "C. krusei; C. krusei, RPMI 1640, 2% glucose, 37°C, duplicate, read-out: MIC90", "value": "> 32", "unit": "mg/L"}, {"measurement": "MIC90", "setting": "C. albicans; C. albicans, RPMI 1640, 2% glucose, 37°C, duplicate, read-out: MIC90", "value": "> 32", "unit": "mg/L"}, {"measurement": "MIC90", "setting": "A. fumigatus (R16); A. fumigatus (R16), RPMI 1640, 2% glucose, read by eye and microscopically, read-out: MIC90", "value": "> 32", "unit": "mg/L"}, {"measurement": "MIC", "setting": "Yarrowia lipolytica; [2]", "value": "> 100", "unit": "mg/L"}, {"measurement": "MIC", "setting": "Yarrowia lipolytica; [3]", "value": "> 100", "unit": "mg/L"}, {"measurement": "MIC90", "setting": "C. glabrata; C. glabrata, RPMI 1640, 2% glucose, 37°C, duplicate, read-out: MIC90", "value": "> 32", "unit": "mg/L"}, {"measurement": "MIC90", "setting": "A. fumigatus (A65)", "value": "> 32", "unit": "mg/L"}, {"measurement": "MIC90", "setting": "A. fumigatus (R7); A. fumigatus (R7), RPMI 1640, 2% glucose, read by eye and microscopically, read-out: MIC90", "value": "> 32", "unit": "mg/L"}, {"measurement": "MIC90", "setting": "R. arrhizus (oryzae); R. arrhizus (oryzae), RPMI 1640, 2% glucose, read by eye and microscopically, read-out: MIC90", "value": "> 32", "unit": "mg/L"}, {"measurement": "IC50", "setting": "[1]", "value": "> 100", "unit": "mg/L"}, {"measurement": "MIC90", "setting": "R. microsporus; R. microsporus, RPMI 1640, 2% glucose, read by eye and microscopically, read-out: MIC90", "value": "> 32", "unit": "mg/L"}]}, {"compound": "CCCCCCCCN1CCC(N2CCC3CCCCC3C2)CC1", "note": "(racemic) [6h, (±)‐2‐(1‐Octylpiperidin‐4‐yl)decahydroisoquinoline]", "values": [{"measurement": "MIC90", "setting": "C. krusei", "value": 8, "unit": "mg/L"}, {"measurement": "MIC90", "setting": "C. albicans", "value": "> 32", "unit": "mg/L"}, {"measurement": "MIC90", "setting": "A. fumigatus (R16)", "value": "> 32", "unit": "mg/L"}, {"measurement": "MIC", "setting": "Yarrowia lipolytica; [4]", "value": 3.1, "unit": "mg/L"}, {"measurement": "MIC", "setting": "Yarrowia lipolytica; 48 h, read-out: MIC100", "value": 3.1, "unit": "mg/L"}, {"measurement": "MIC90", "setting": "C. glabrata", "value": "> 32", "unit": "mg/L"}, {"measurement": "MIC90", "setting": "A. fumigatus (A65)", "value": "> 32", "unit": "mg/L"}, {"measurement": "MIC90", "setting": "A. fumigatus (R7)", "value": "> 32", "unit": "mg/L"}, {"measurement": "MIC", "setting": "R. arrhizus (oryzae); read-out: MIC90", "value": 32, "unit": "mg/L"}, {"measurement": "IC50", "setting": "[1]; [5]", "value": 75, "unit": "mg/L"}, {"measurement": "MIC90", "setting": "R. microsporus", "value": "> 32", "unit": "mg/L"}]}, {"compound": "COc1cc2c(cc1OC)CN(C1CCN(CCC(C)CCC=C(C)C)CC1)CC2", "note": "(racemic) [6j, (±)‐2‐[1‐(3,7‐Dimethyloct‐6‐en‐1‐yl)piperidin‐4‐yl]‐6,7‐dimethoxy‐1,2,3,4‐tetrahydroisoquinoline]", "values": [{"measurement": "MIC90", "setting": "C. krusei", "value": 32, "unit": "mg/L"}, {"measurement": "MIC90", "setting": "C. albicans", "value": "> 32", "unit": "mg/L"}, {"measurement": "MIC90", "setting": "A. fumigatus (R16)", "value": "> 32", "unit": "mg/L"}, {"measurement": "MIC", "setting": "Yarrowia lipolytica; [4]", "value": 3.1, "unit": "mg/L"}, {"measurement": "MIC", "setting": "Yarrowia lipolytica; 48 h, read-out: MIC100", "value": 3.1, "unit": "mg/L"}, {"measurement": "MIC", "setting": "Yarrowia lipolytica; read-out: MIC100 (molar value in brackets)", "value": 7.5, "unit": "µM"}, {"measurement": "MIC90", "setting": "C. glabrata", "value": "> 32", "unit": "mg/L"}, {"measurement": "MIC90", "setting": "A. fumigatus (A65)", "value": "> 32", "unit": "mg/L"}, {"measurement": "MIC90", "setting": "A. fumigatus (R7)", "value": "> 32", "unit": "mg/L"}, {"measurement": "MIC90", "setting": "R. arrhizus (oryzae)", "value": "> 32", "unit": "mg/L"}, {"measurement": "IC50", "setting": "[1]; [5]", "value": 75, "unit": "mg/L"}, {"measurement": "MIC90", "setting": "R. microsporus", "value": "> 32", "unit": "mg/L"}]}, {"compound": "CC(C)(C)OC(=O)N1CCC(N2CCc3ccccc3C2)CC1", "note": "[3a, tert‐Butyl 4‐(3,4‐dihydroisoquinolin‐2(1H)‐yl)piperidine‐1‐carboxylate]", "values": [{"measurement": "MIC", "setting": "Yarrowia lipolytica; [4]", "value": "> 100", "unit": "mg/L"}, {"measurement": "MIC", "setting": "Yarrowia lipolytica; 48 h, read-out: MIC100", "value": "> 100", "unit": "mg/L"}]}, {"compound": "COc1cc2c(cc1OC)CN(C1CCN(C(=O)OC(C)(C)C)CC1)CC2", "note": "[3b, tert‐Butyl 4‐(6,7‐dimethoxy‐3,4‐dihydroisoquinolin‐2(1H)‐yl)piperidine‐1‐carboxylate]", "values": [{"measurement": "MIC", "setting": "Yarrowia lipolytica; [4]", "value": "> 100", "unit": "mg/L"}, {"measurement": "MIC", "setting": "Yarrowia lipolytica; 48 h, read-out: MIC100", "value": "> 100", "unit": "mg/L"}]}, {"compound": "CC(C)(C)OC(=O)N1CCC(N2CCC3CCCCC3C2)CC1", "note": "(stereo not shown) [3c, tert‐Butyl 4‐(octahydroisoquinolin‐2(1H)‐yl)piperidine‐1‐carboxylate]", "values": [{"measurement": "MIC", "setting": "Yarrowia lipolytica; [4]", "value": "> 100", "unit": "mg/L"}, {"measurement": "MIC", "setting": "Yarrowia lipolytica; 48 h, read-out: MIC100", "value": "> 100", "unit": "mg/L"}]}, {"compound": "COc1cc2c(cc1OC)CN(C1CCNCC1)CC2", "note": "[4b, 6,7‐Dimethoxy‐2‐(piperidin‐4‐yl)‐1,2,3,4‐tetrahydroisoquinoline]", "values": [{"measurement": "MIC", "setting": "Yarrowia lipolytica; [4]", "value": "> 100", "unit": "mg/L"}, {"measurement": "MIC", "setting": "Yarrowia lipolytica; 48 h, read-out: MIC100", "value": "> 100", "unit": "mg/L"}]}, {"compound": "CCCCCCCC(=O)N1CCC(N2CCc3ccccc3C2)CC1", "note": "[5b, 1‐[4‐(3,4‐Dihydroisoquinolin‐2(1H)‐yl)piperidin‐1‐yl]octan‐1‐one]", "values": [{"measurement": "MIC", "setting": "Yarrowia lipolytica; [4]", "value": "> 100", "unit": "mg/L"}, {"measurement": "MIC", "setting": "Yarrowia lipolytica; 48 h, read-out: MIC100", "value": "> 100", "unit": "mg/L"}]}]}
